According to ChEMBL document CHEMBL1131956, “Nucleomimetic strategy for the inhibition of HIV-1 nucleocapsid protein NCp7 activities” (1999):

Tests used:
[1] = target: Human immunodeficiency virus type 1 reverse transcriptase (Human immunodeficiency virus 1) (UniProt Q72547); assay: Reverse transcriptase activity using an HIV-1 infected cell line at 10 micro M concentration
[2] = system: Human immunodeficiency virus 1; assay: Affinity for HIV-1 Nucleocapsid Protein (12-53)NCp7 was determined; type: functional

Structure (SMILES) | inhibition [1] [%] | Affinity [2] [M⁻¹]
Cc1cn(C2CC(CC(=O)NC3OC(n4cnc5c(O)nc(N)nc54)CC3O)C(CO)O2)c(=O)[nH]c1=O (configuration not stated) | 20 | –
Cc1cn(C2CC(O)C(NC(=O)CC3CC(n4cnc5c(O)nc(N)nc54)OC3CO)O2)c(=O)[nH]c1=O (configuration not stated) | – | 9
